# From patent US10087185B2 (Janssen Pharmaceutica NV, priority 2016, dated 2018)
# Biological target: TARP γ8 dependent AMPA receptor (GRIA1o-CACNG8 fusion construct) (Homo sapiens (Human), UniProt P42261+Q8WXS5)
# Test: Calcium flux assay (FLIPR), inhibition of glutamate response of GluA1o-γ8 channel
# Type: cell-based
# Settings: HEK293 cells stably expressing GRIA1o-CACNG8 fusion; calcium flux after 15 μM glutamate; negative log of the IC50 in molar
# From the text: This assay was used to test compounds for their ability to inhibit TARP γ8 dependent AMPA receptor activity. The AMPA receptor is a non-selective cation channel activated by glutamate. […] But, this desensitization is incomplete, and a substantial steady-state current remains in the sustained presence of glutamate (Cho et al. (2007). “Two families of TARP isoforms that have distinct effects on the kinetic properties of AMPA receptors and synaptic currents.” Neuron 55(6): 890-904).
# An in vitro assay was used to determine the potency of test compounds as inhibitors of the glutamate response of the channel formed by GluA10-γ8. To ensure a 1:1 stoichiometry of GluA1o and γ8 subunits in the expressed channel, a fusion of the cDNAs for GRIA1o and CACNG8 was used. Following Shi et al (2009) “The stoichiometry of AMPA receptors and TARPs varies by neuronal cell type.” Neuron 62(5): 633-640), the C-terminus of the cDNA for GRIA1o was fused to the N-terminus of the cDNA for γ8. The linker sequence was […]. Channels expressed with this construct appear to have similar properties to channels formed by co-expression of GRIA1o with an excess of CACNG8 (Shi et al. 2009). A clonal cell line in HEK293 cells stably expressing this construct, with a geneticin selection marker, was generated for use in this assay.
# Cell expressing the GRIA1o-CACNG8 fusion construct were grown in a monolayer in 96- or 384-well microtiter plates. They were washed with assay buffer (135 mM NaCl, 4 mM KCl, 3 mM CaCl2, 1 mM MgCl2, 5 mM glucose, 10 mM HEPES, pH 7.4, 300 mOs) using a Biotek EL405 plate washer. The cells were then loaded with a calcium-sensitive dye (Calcium-5 or Calcium-6, Molecular Devices) and the test compounds at a range of concentrations. Calcium flux following the addition of 15 μM glutamate was monitored using a Molecular Devices FLIPR Tetra.
# The fluorescence in each well was normalized to the fluorescence of negative and positive control wells. The negative control wells had no added compounds, and the positive control wells had been incubated with 10 μM CP465022 (a non-subtype-selective AMPA receptor antagonist) (Lazzaro et al. (2002). “Functional characterization of CP-465,022, a selective, noncompetitive AMPA receptor antagonist.” Neuropharmacology 42(2): 143-153). The responses to glutamate as functions of the test compound concentrations were fitted to a four-parameter logistic function. The fitted parameter corresponding to the midpoint was taken to be the potency of inhibition of the compound. The data in Table 4 below illustrates the observed potency for the compounds described herein. pIC50 refers to the negative log of the IC50 in molar.
# TARP γ8 dependent AMPA receptor (GRIA1o-CACNG8 fusion construct), sequence (P42261 other isoform, or with tags, fused parts or gaps): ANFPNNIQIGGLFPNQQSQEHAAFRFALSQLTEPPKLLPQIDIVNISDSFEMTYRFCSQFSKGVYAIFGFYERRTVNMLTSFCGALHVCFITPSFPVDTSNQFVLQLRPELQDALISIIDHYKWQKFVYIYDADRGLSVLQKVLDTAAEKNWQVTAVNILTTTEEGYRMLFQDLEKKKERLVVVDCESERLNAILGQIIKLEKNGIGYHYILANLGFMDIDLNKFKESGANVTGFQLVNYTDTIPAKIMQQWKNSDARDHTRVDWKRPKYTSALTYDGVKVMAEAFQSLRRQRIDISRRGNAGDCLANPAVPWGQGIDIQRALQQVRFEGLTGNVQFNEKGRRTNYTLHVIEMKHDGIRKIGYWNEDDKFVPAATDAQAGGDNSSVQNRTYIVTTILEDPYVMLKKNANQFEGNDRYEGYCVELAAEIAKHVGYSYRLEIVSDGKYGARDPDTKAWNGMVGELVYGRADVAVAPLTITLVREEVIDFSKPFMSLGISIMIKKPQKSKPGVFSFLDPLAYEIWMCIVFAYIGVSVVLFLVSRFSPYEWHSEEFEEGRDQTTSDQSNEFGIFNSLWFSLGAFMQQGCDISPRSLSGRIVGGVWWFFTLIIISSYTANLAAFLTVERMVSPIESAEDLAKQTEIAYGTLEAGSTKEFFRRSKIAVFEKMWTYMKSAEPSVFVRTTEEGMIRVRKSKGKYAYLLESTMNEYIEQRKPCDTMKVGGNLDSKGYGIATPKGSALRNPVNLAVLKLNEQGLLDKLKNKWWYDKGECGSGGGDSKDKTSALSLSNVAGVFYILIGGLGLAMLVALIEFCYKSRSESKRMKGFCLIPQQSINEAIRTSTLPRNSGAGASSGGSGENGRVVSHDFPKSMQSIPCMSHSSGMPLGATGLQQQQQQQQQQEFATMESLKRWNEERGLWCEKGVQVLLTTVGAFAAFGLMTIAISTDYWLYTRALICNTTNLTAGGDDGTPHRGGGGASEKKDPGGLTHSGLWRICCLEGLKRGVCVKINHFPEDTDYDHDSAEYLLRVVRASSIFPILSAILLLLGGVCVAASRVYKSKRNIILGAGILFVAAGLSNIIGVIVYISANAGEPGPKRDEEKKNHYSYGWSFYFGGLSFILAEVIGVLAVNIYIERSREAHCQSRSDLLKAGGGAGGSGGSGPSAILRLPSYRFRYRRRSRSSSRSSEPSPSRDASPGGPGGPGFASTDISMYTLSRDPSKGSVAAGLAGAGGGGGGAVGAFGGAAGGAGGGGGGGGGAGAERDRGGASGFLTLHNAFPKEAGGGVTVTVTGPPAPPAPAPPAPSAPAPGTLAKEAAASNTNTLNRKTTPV
row,SMILES,IC50
1,"CC(F)(F)c1ccc2nc(C(F)(F)F)nn2c1-c1cc(Cl)c2[nH]ncc2c1 [Example 53, 5-(7-Chloro-1H-indazol-5-yl)-6-(1,1-difluoroethyl)-2-(trifluoromethyl)-[1,2,4]triazolo[1,5-a]pyridine]",0.0501 nM
2,"FC(F)c1ccc2nc(C(F)(F)F)nn2c1-c1cc(Cl)c2[nH]ncc2c1 [Example 16, 5-(7-Chloro-1H-indazol-5-yl)-6-(difluoromethyl)-2-(trifluoromethyl)-[1,2,4]triazolo[1,5-a]pyridine]",0.1 nM
3,"CC(C)c1cc2ccc(C(F)(F)F)c(-c3cc(Cl)c4[nH]ncc4c3)n2n1 [Example 73, 7-Chloro-5-(2-isopropyl-6-(trifluoromethyl)pyrazolo[1,5-a]pyridin-7-yl)-1H-indazole]",0.01 nM
4,"CCc1nc2ccc(C(F)F)c(-c3cc(Cl)c4[nH]ncc4c3)n2n1 [Example 44, 5-(7-Chloro-1H-indazol-5-yl)-6-(difluoromethyl)-2-ethyl-[1,2,4]triazolo[1,5-a]pyridine]",0.398 nM
5,"FC(F)(F)c1ccc2cc(C3CC3)nn2c1-c1cc(Cl)c2[nH]ncc2c1 [Example 70, 7-Chloro-5-(2-cyclopropyl-6-(trifluoromethyl)pyrazolo[1,5-a]pyridin-7-yl)-1H-indazole]",0.0631 nM
6,"O=c1[nH]c2ccc(-c3c(C(F)(F)F)ccc4nc(C(F)F)nn34)cc2s1 [Example 54, 6-(2-(Difluoromethyl)-6-(trifluoromethyl)-[1,2,4]triazolo[1,5-a]pyridin-5-yl)benzo[d]thiazol-2(3H)-one]",0.794 nM
7,"Cc1cc(C(F)F)c(-c2cc(Cl)c3[nH]ncc3c2)n2nc(C(F)(F)F)cc12 [Example 125, 7-(7-Chloro-1H-indazol-5-yl)-6-(difluoromethyl)-4-methyl-2-(trifluoromethyl)pyrazolo[1,5-a]pyridine]",0.1 nM
8,"CCc1cc(C(F)(F)F)c(-c2cc(Cl)c3[nH]ncc3c2)n2nc(C(F)F)nc12 [Example 87, 5-(7-Chloro-1H-indazol-5-yl)-2-(difluoromethyl)-8-ethyl-6-(trifluoromethyl)-[1,2,4]triazolo[1,5-a]pyridine]",0.398 nM
9,"CCc1nc2c(Cl)cc(C(F)(F)F)c(-c3cc(C)c4[nH]ncc4c3)n2n1 [Example 30, 8-Chloro-2-ethyl-5-(7-methyl-1H-indazol-5-yl)-6-(trifluoromethyl)-[1,2,4]triazolo[1,5-a]pyridine]",3.98 nM
10,"Cc1cc(-c2c(C(F)(F)F)ccc3nc(C4CC4)nn23)cc2c1NC(=O)C2 [Example 41, 5-(2-Cyclopropyl-6-(trifluoromethyl)-[1,2,4]triazolo[1,5-a]pyridin-5-yl)-7-methylindolin-2-one]",0.631 nM
11,"O=C1Cc2cc(-c3c(C(F)(F)F)ccc4nc(C5CC5)nn34)cc(Cl)c2N1 [Example 40, 7-Chloro-5-(2-cyclopropyl-6-(trifluoromethyl)-[1,2,4]triazolo[1,5-a]pyridin-5-yl)indolin-2-one]",0.398 nM
12,"FC(F)c1nc2ccc(C(F)(F)F)c(-c3cc(Cl)c4[nH]ncc4c3)n2n1 [Example 7, 5-(7-Chloro-1H-indazol-5-yl)-2-(difluoromethyl)-6-(trifluoromethyl)-[1,2,4]triazolo[1,5-a]pyridine]",0.0631 nM
13,"FC(F)c1nc2ccc(C(F)(F)F)c(-c3cc(C(F)(F)F)c4[nH]ncc4c3)n2n1 [Example 11, 2-(Difluoromethyl)-6-(trifluoromethyl)-5-(7-(trifluoromethyl)-1H-indazol-5-yl)-[1,2,4]triazolo[1,5-a]pyridine]",0.158 nM
14,"CCc1cc(C(F)F)c(-c2cc(C)c3[nH]ncc3c2)n2nc(C3CC3)nc12 [Example 94, 2-Cyclopropyl-6-(difluoromethyl)-8-ethyl-5-(7-methyl-1H-indazol-5-yl)-[1,2,4]triazolo[1,5-a]pyridine]",0.398 nM
15,"Cc1cc(-c2c(C(F)F)cc(C)c3cc(C(F)(F)F)nn23)cc2cn[nH]c12 [Example 123, 6-(Difluoromethyl)-4-methyl-7-(7-methyl-1H-indazol-5-yl)-2-(trifluoromethyl)pyrazolo[1,5-a]pyridine]",0.126 nM
16,"Cc1cc(-c2c(-c3ccc(F)cc3)ccc3nc(C(F)(F)F)nn23)cc2cn[nH]c12 [Example 55, 6-(4-Fluorophenyl)-5-(7-methyl-1H-indazol-5-yl)-2-(trifluoromethyl)-[1,2,4]triazolo[1,5-a]pyridine]",0.0398 nM
17,"Cc1cc(-c2c(-c3cccnc3)ccc3nc(C(F)(F)F)nn23)cc2cn[nH]c12 [Example 58, 5-(7-Methyl-1H-indazol-5-yl)-6-(pyridin-3-yl)-2-(trifluoromethyl)-[1,2,4]triazolo[1,5-a]pyridine]",0.794 nM
18,"Cc1cc(-c2c(C(F)(F)F)cc(C)c3nc(C(F)(F)F)nn23)cc2cn[nH]c12 [Example 107, 8-Methyl-5-(7-methyl-1H-indazol-5-yl)-2,6-bis(trifluoromethyl)-[1,2,4]triazolo[1,5-a]pyridine]",0.501 nM
19,"Cc1nc2ccc(C(F)(F)F)c(-c3cc(C)c4[nH]ncc4c3)n2n1 [Example 22, 2-Methyl-5-(7-methyl-1H-indazol-5-yl)-6-(trifluoromethyl)-[1,2,4]triazolo[1,5-a]pyridine]",12.6 nM
20,"Cc1cc(-c2c(C(F)F)ccc3nc(C4CC4)nn23)cc2cn[nH]c12 [Example 49, 2-Cyclopropyl-6-(difluoromethyl)-5-(7-methyl-1H-indazol-5-yl)-[1,2,4]triazolo[1,5-a]pyridine]",0.794 nM
21,"CC(F)(F)c1nc2ccc(C(F)(F)F)c(-c3cc(Cl)c4[nH]ncc4c3)n2n1 [Example 42, 5-(7-Chloro-1H-indazol-5-yl)-2-(1,1-difluoroethyl)-6-(trifluoromethyl)-[1,2,4]triazolo[1,5-a]pyridine]",0.1 nM
22,"Cc1cc(-c2c(C(F)F)cc(C)c3nc(C(F)(F)F)nn23)cc2cn[nH]c12 [Example 111, 6-(Difluoromethyl)-8-methyl-5-(7-methyl-1H-indazol-5-yl)-2-(trifluoromethyl)-[1,2,4]triazolo[1,5-a]pyridine]",0.794 nM
23,"FC(F)c1ccc2nc(C3CC3)nn2c1-c1cc(Cl)c2[nH]ncc2c1 [Example 48, 5-(7-Chloro-1H-indazol-5-yl)-2-cyclopropyl-6-(difluoromethyl)-[1,2,4]triazolo[1,5-a]pyridine]",0.2 nM
24,"CCCc1nc2c(Cl)cc(C(F)(F)F)c(-c3cc(Cl)c4c(c3)CC(=O)N4)n2n1 [Example 97, 7-Chloro-5-(8-chloro-2-propyl-6-(trifluoromethyl)-[1,2,4]triazolo[1,5-a]pyridin-5-yl)indolin-2-one]",0.501 nM
25,"Cc1cc(C(F)(F)F)c(-c2cc(Cl)c3[nH]ncc3c2)n2nc(C(F)F)nc12 [Example 78, 5-(7-Chloro-1H-indazol-5-yl)-2-(difluoromethyl)-8-methyl-6-(trifluoromethyl)-[1,2,4]triazolo[1,5-a]pyridine]",0.126 nM
26,"CCc1nc2c(CC)cc(C(F)(F)F)c(-c3cc(C)c4[nH]ncc4c3)n2n1 [Example 90, 2,8-Diethyl-5-(7-methyl-1H-indazol-5-yl)-6-(trifluoromethyl)-[1,2,4]triazolo[1,5-a]pyridine]",3.16 nM
27,"O=C1Cc2cc(-c3c(C(F)F)ccc4nc(C(F)(F)F)nn34)cc(Cl)c2N1 [Example 18, 7-Chloro-5-(6-(difluoromethyl)-2-(trifluoromethyl)-[1,2,4]triazolo[1,5-a]pyridin-5-yl)indolin-2-one]",0.251 nM
